Source: ChEMBL document CHEMBL5465560, “Selectivity Literature for EUbOPEN Chemogenomic Library” (2024)
Each block holds one molecule with its values, some of them ahead of it.

Assays:
[1] = target: Glycogen synthase kinase-3 beta (Homo sapiens, UniProt P49841); assay: Selectivity interaction (SelectScreen profiling (Invitrogen)) EUB0000607a GSK3B; settings: at 2 µM
[2] = target: T1, Dual specificity mitogen-activated protein kinase kinase 3 (Homo sapiens) (UniProt P46734); assay: Selectivity interaction (KinomeScan (DiscoverX)) EUB0001619a MAP2K3; settings: at 1 µM
T1 sequence (whole entry): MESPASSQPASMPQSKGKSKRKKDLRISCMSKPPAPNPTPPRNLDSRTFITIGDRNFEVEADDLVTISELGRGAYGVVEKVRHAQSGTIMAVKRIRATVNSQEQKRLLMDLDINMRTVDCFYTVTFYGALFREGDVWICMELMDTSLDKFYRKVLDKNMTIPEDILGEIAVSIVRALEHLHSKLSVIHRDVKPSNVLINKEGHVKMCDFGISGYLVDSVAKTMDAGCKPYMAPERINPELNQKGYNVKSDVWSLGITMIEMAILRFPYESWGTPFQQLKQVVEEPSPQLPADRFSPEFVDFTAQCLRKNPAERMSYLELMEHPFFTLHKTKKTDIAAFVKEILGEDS

[3] = target: Mitogen-activated protein kinase 9 (Homo sapiens, UniProt P45984); assay: Selectivity interaction (ActivX KiNativ screen (ex vivo kinase selectivity in human PBMCs)) EUB0001619a MAPK9; assay type: cell-based; settings: PBMC, at 1 µM
[4] = target: T2, Inhibitor of nuclear factor kappa-B kinase subunit beta (Homo sapiens) (UniProt O14920); assay: Selectivity interaction (KinomeScan (DiscoverX)) EUB0000595a IKBKB; settings: at 10 µM
T2 sequence (whole entry): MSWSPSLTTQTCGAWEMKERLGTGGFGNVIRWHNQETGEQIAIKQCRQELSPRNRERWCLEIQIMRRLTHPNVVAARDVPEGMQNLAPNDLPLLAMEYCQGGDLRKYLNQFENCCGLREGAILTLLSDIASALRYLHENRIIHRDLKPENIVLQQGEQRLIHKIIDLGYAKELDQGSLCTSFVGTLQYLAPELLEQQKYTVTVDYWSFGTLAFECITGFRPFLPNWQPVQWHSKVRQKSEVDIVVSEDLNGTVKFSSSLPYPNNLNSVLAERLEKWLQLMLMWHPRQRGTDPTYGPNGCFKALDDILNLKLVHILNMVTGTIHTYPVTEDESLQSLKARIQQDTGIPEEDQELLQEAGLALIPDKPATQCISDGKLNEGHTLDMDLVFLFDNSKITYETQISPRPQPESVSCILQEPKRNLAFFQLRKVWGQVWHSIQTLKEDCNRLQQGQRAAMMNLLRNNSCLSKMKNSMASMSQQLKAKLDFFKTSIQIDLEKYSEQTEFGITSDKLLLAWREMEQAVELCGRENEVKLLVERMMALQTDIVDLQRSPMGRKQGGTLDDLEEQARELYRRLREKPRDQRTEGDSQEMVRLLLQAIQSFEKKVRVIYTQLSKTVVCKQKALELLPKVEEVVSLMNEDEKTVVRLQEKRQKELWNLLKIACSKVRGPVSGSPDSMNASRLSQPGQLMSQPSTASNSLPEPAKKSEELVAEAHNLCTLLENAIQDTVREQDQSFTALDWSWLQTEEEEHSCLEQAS

[5] = target: Histone acetyltransferase KAT2A (Homo sapiens) (UniProt Q92830); assay: Selectivity interaction (Bromodomain panel (DSF asssay)) EUB0000270b KAT2A
[6] = target: Phosphatidylinositol 4-phosphate 3-kinase C2 domain-containing subunit beta (Homo sapiens) (UniProt O00750); assay: Selectivity interaction (KinomeScan (DiscoverX)) EUB0001049a PIK3C2B; settings: at 1 µM
[7] = target: T3, Ephrin type-A receptor 8 (Homo sapiens) (UniProt P29322); assay: Selectivity interaction (KinomeScan (DiscoverX)) EUB0001049a EPHA8; settings: at 1 µM
T3 sequence (whole entry): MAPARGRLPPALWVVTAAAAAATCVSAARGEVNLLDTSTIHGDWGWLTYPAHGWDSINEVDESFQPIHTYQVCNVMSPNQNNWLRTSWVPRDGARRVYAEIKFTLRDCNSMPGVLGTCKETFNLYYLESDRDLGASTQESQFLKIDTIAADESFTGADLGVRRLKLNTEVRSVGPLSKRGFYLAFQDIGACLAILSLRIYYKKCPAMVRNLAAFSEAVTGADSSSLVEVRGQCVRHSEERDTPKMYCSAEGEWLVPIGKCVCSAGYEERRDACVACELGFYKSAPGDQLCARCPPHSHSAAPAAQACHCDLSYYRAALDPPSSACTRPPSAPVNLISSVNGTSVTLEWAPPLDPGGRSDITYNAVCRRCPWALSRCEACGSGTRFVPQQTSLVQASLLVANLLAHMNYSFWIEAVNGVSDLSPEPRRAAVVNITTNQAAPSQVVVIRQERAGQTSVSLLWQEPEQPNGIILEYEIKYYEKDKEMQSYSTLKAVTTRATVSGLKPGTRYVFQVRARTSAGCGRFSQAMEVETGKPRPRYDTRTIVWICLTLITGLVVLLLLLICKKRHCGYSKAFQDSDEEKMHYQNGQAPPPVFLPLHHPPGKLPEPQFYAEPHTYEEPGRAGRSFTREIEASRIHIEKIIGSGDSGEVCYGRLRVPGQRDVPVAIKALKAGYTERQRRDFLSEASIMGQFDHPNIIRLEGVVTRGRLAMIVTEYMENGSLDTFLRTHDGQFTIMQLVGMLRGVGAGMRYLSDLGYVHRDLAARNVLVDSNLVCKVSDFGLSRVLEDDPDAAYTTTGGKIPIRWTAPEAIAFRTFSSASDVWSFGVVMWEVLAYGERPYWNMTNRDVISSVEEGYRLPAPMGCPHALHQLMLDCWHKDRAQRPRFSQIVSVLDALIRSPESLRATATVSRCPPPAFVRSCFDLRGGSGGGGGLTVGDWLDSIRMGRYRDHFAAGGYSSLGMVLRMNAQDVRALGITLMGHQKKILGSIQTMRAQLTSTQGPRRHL

Histone acetyltransferase KAT2A (Homo sapiens), sequence (Q92830 2-837 limits assumed): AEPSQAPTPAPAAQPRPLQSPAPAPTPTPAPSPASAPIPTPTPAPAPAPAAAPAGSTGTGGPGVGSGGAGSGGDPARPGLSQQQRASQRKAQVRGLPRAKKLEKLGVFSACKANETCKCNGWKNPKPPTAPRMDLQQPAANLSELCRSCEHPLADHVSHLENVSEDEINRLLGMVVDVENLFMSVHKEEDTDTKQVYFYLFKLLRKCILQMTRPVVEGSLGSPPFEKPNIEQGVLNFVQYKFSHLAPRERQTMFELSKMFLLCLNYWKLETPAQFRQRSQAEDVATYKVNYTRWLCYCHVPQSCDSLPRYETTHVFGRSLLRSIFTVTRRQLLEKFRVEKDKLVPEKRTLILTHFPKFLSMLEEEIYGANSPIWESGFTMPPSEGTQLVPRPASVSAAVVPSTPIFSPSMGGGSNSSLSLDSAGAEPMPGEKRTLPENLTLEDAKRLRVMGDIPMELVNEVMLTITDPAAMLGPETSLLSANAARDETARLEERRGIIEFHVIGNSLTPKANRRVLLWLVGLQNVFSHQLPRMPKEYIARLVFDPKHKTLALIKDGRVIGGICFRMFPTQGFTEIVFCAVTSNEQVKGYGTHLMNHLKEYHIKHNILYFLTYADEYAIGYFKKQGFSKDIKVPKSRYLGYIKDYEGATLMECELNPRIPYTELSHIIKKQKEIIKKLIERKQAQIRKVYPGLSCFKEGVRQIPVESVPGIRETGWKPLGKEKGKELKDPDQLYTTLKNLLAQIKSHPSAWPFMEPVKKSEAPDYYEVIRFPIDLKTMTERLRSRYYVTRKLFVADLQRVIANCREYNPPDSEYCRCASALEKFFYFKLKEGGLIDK
Mitogen-activated protein kinase 9, sequence (P45984 whole entry, looked up): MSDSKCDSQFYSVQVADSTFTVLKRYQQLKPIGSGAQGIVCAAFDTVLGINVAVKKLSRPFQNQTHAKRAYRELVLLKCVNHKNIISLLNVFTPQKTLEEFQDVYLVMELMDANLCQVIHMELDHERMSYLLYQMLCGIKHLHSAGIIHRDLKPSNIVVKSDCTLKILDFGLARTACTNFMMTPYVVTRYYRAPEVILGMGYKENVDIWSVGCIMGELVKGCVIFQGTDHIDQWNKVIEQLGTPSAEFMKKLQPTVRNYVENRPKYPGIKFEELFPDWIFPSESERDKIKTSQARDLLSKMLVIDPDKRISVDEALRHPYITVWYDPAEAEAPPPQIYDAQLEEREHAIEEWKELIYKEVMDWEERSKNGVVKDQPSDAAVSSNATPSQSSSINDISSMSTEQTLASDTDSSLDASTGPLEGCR
Phosphatidylinositol 4-phosphate 3-kinase C2 domain-containing subunit beta (Homo sapiens), sequence (O00750 whole entry, the tested form may be a part): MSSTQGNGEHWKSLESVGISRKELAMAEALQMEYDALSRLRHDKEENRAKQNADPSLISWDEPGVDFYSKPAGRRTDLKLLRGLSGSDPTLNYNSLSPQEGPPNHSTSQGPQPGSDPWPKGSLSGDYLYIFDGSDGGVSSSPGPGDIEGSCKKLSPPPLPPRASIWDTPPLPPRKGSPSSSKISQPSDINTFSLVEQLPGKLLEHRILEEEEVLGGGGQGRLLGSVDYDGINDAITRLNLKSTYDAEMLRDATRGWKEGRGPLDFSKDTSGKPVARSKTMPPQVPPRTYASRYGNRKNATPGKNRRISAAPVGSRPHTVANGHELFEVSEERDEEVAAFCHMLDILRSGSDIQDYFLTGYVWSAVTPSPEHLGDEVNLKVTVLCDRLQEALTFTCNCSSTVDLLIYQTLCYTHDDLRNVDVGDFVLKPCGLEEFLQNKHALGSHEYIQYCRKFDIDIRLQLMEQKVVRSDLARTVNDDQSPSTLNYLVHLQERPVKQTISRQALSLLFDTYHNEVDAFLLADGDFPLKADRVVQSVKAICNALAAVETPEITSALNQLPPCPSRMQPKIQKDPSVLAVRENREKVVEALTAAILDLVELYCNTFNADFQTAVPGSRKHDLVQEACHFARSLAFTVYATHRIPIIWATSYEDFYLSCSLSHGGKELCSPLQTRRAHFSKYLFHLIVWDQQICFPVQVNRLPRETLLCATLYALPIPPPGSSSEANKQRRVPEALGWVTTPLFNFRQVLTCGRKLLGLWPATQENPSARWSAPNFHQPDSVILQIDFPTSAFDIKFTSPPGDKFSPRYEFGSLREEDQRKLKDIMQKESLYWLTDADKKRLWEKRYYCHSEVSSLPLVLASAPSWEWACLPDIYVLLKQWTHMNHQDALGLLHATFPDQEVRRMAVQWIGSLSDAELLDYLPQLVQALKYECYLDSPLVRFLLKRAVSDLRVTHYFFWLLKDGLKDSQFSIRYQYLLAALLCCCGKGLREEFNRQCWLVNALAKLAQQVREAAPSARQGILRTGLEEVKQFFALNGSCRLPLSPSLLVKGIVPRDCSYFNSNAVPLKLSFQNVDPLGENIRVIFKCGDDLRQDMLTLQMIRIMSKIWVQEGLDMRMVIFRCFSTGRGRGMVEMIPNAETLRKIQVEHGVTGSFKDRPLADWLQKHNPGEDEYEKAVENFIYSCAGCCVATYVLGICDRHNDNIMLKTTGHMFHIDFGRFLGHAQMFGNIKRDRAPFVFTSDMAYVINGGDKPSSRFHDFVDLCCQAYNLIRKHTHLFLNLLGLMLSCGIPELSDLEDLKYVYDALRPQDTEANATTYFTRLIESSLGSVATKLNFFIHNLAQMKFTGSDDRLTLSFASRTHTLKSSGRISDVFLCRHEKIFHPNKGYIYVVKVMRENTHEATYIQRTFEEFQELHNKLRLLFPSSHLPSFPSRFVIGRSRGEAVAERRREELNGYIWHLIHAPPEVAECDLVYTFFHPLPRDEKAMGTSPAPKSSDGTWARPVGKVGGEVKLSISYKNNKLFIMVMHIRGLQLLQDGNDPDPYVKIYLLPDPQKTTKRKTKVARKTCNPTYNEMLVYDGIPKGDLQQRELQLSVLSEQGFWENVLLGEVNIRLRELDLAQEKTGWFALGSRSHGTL
Glycogen synthase kinase-3 beta, sequence (P49841 whole entry, looked up): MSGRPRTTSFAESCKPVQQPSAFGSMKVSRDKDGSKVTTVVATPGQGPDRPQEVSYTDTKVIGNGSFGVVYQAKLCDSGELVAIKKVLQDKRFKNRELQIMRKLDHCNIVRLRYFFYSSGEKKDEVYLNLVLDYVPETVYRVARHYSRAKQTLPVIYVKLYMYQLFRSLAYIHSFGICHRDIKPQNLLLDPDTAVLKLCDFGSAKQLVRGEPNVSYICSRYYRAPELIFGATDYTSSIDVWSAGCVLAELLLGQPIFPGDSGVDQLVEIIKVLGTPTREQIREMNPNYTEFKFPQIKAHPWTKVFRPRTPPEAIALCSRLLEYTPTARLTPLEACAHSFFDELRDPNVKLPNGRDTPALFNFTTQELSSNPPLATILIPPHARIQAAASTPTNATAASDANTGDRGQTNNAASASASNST

SMILES: CNC(=O)Nc1ccc(-c2nc(N3CC4CCC(C3)O4)c3cnn(C4CCC5(CC4)OCCO5)c3n2)cc1
% of inhibition [1]: 1%

SMILES: N#Cc1cccc(-c2c[nH]c3ncnc(N4CCOCC4)c23)c1
% of control [2]: 71%
% of inhibition [3]: 5%

SMILES: COCC(=O)NC/C=C/c1ccc2ncnc(Nc3ccc(Oc4ccc(C)nc4)c(C)c3)c2c1 [CP-724714]
% of control [4]: 100%

dTM [5]: -2.29 K
SMILES: Cc1cc(CN)cc(C)c1-c1ncn(C)c1-c1cncn1C

SMILES: COc1cc(Nc2nc(C)cc(-c3cnn4nc(OC)ccc34)n2)cc(C(F)(F)F)c1
% of control [6]: 100%
% of control [7]: 81%
